We go through 91 compounds from a melting point compilation (Tetko et al.; mined from patent text by program, amines drawn as free bases though some values may be those of a salt).

Bounds are passed on as bounds.

What is called melting point is the temperature, or range, at which the solid turns liquid.

The compound `Nc1ccc(Sc2nnc3ccc(-c4ccc(F)cc4)cn23)cc1` yielded a melting point of 217 °C. The compound `CCCNC(=O)C(Cc1ccc2c(c1)c(Cc1ccc(C(=O)O)cc1OC)cn2CCC)C(C)C` (stereo unspecified) showed a melting point of 160 to 162 °C. To `Cn1c([N+](=O)[O-])cnc1COc1ccc([N+](=O)[O-])cc1` belongs 150 °C; to `c1ccc2c(c1)C[C@H]1CSC(=Nc3csc4cnccc34)N1C2`, 180 °C; to `CCC(=O)Nc1ccc(C=CC(=O)O)cc1`, 243 °C.

In turn, `CCN(CCc1ccc(Nc2ncc3c(n2)-c2ccccc2C(c2cccc(Br)c2)C3)cc1)Cc1ccncc1` (stereo unspecified) yielded a melting point of 88 to 90 °C. To `CC(NC(=O)c1cccnc1Oc1cccnc1)c1ccc(Cl)s1` (single isomer, unassigned; (+)) belongs 83 to 85 °C; to `Cc1nc(N)cc(-n2ccc3ccccc32)n1`, 176 to 177 °C; to `COc1ccc2[nH]c3c(C)nc4c(c3c2c1)C(=O)CC(C)(C)C4`, 241 to 243 °C.

`Cc1sc(C(N)=O)c2c1-c1nn(C)cc1CC2` yielded a melting point of 276 to 277 °C. In the case of `CCOC(=O)N1CCN(CC2CSC3=C(O2)c2ccccc2C(=O)C3=O)CC1` (stereo unspecified), the melting point was 185 to 187 °C. As for `CC(C)(C)C(=O)OCN1C(=O)NC2(C1=O)C(=O)N(Cc1ccc(Cl)c(Cl)c1)c1ccccc12` (stereo unspecified), the figure is 209 to 211 °C; as for `CCC[C@H](NC(=O)[C@H](C)N)C(=O)N[C@@H](C)P(=O)(O)O`, 268 to 270 °C; as for `COc1cccc(C(=O)N2CCc3cc(OCc4ccccc4)c(OC)cc3C2=O)c1`, 141 to 143 °C. As for `Oc1cccc(CC2c3ccccc3CCc3ccccc32)c1`, the figure is 76.6 °C; as for `Cc1cc(Cl)cc(C(=O)Nc2cccc(Cl)n2)n1`, 176 °C. To `CCOC(=O)c1c(O)c2cc(F)ccc2c(=O)n1CC(C)C` belongs 91 to 92 °C; to `Fc1cccc(NC(=S)c2ccccn2)c1`, 72 to 76 °C. `CCC(CC)Nc1nc(N)nc(C(C)(C)F)n1` displayed a melting point of 104 to 106 °C.

Compound `CSc1ccnc(-c2nc(=O)c3ccccc3s2)c1` yielded a melting point of 213 to 214 °C.

Take `CC(C)(C)OC(=O)NC1N=C(c2ccccc2F)c2ccccc2N(CCO)C1=O` (racemic): the melting point came out at 200 °C. To `CCCCCCNC(=O)c1cnc2cccc(C)n2c1=O` belongs 116 to 118 °C; to `COc1ccc(S(=O)(=O)Nc2ccc(F)cc2NC(=O)c2ccccc2)cc1`, 153 to 154 °C. As for `COc1cc(C=CC(=O)c2cc(OC)c(OC)c(OC)c2)cc([N+](=O)[O-])c1O`, the figure is 123 to 125 °C; as for `Cc1cc2c(cc1F)N(C(=O)Nc1cccnc1)CC2`, 203 to 205 °C; as for `O=S(=O)(c1ccccc1)C(F)(F)C(O)c1ccco1` (stereo unspecified), 72 to 74 °C. To `CNC(=O)C1=CC(C)(CF)Oc2ccc([N+](=O)[O-])cc21` (stereo unspecified) belongs 171 to 173 °C; to `Cc1cc(Cl)c(S(C)(=O)=O)cc1C(=O)O`, 180 to 183 °C. `Cc1cccc(-c2nc3c(o2)C(=O)c2ccccc2C3=O)c1` registered a melting point of 255 °C. As for `Cc1nc2c(OCCCc3ccccc3)cccn2c1CC#N`, the figure is 143 to 145 °C. As for `N#CC=Cc1ccc(Cl)cc1C(=O)c1ccccc1F`, the figure is 130 to 133 °C; as for `Cc1c[nH]c(-c2ccc(F)cc2)c1-c1ccc(F)cc1`, 126 to 127 °C; as for `Cc1cccc(C(=O)Cc2ccnc(F)c2)c1`, 66 to 67 °C. To `Cc1ncc(OC2CCCCO2)c(=O)[nH]1` (stereo unspecified) belongs 149 to 151 °C; to `CCCCCCCCCCCCCCSCC(O)CNCCO` (stereo unspecified), 71.4 to 73.2 °C. For `COc1ccc(CCNC(=O)CNc2cccc(C(N)=O)c2)cc1OC`, the melting point fell in the range of 133 to 135 °C. As for `O=C(NNc1ccc(Cl)cc1Cl)C(F)(F)F`, the figure is 127 to 128 °C. To `Nc1cc(N)c(OCC(F)(F)F)cc1OCC(F)(F)F` belongs 109 °C; to `N#CCC=Cc1ccccc1S(N)(=O)=O`, 144 to 145 °C. For `CCOC(=O)NNC(=O)NCCCCl`, the melting point was in the range of 105 to 106 °C.

For `NCCC(=O)Nc1ccc(Nc2ccccc2)cc1`, the melting point lay within 108 to 110 °C. On to `O=C(c1ccc(F)cc1)c1ccc(Br)cc1`, for which the melting point is 106 to 107 °C. To `O=c1c(Cl)c(OCc2ccc(Cl)cc2)cnn1-c1ccc(F)cc1F` belongs 167 °C; to `CN(C)N=Nc1c(Br)csc1C(N)=O`, 194 to 196 °C; to `N#Cc1ccc(Br)cc1Br`, 76 to 78 °C. To `COc1ccc(Cl)c(OC)c1C(=O)O` belongs 132 to 133 °C. To `O=C(Nc1ccc(Oc2ccnc(N3CCC(O)CC3)n2)c2ccccc12)c1cc(F)cc(N2CCOCC2)c1` belongs 106 to 108 °C. For the compound `FC(F)(F)c1ccccc1-c1nc(-c2ccccc2Cl)nn1CCCl`, the melting point is 66 to 68 °C. As for `COc1ccc2c(c1)nc(C)n2-c1ccccc1`, the figure is 88 to 90 °C; as for `O=C(O)c1cccc(-c2nnc(-c3ccc(C(F)(F)F)cc3)o2)c1`, 239 to 240 °C.

With `NC(=O)c1cnn2c1NCC=C2c1ccccc1`, the melting point is 149 to 152 °C. As for `COc1ccc(C#Cc2ccccc2)cc1`, the figure is 57 to 58 °C; as for `CSc1nn2c(O)cc(O)nc2c1S(=O)(=O)c1ccccc1`, above 230 °C; as for `Cn1c(C(F)F)nn(-c2cc(O)c(Cl)cc2Cl)c1=O`, 176 to 179 °C. For `CCC(c1ccccc1)(c1ccccc1)c1ccnc(C(=O)O)c1`, the melting point lay in the range of 191 to 193 °C.

Compound `COc1cc(C2c3cc4c(cc3C(NC3=CC(=O)N(Cc5ccc(NC(C)=O)cc5)C3=O)C3COC(=O)C23)OCO4)cc(OC)c1O[Si](C)(C)C(C)(C)C` (stereo unspecified) had a melting point of 177 to 179 °C. The compound `CCOC(=O)N(CCNc1ccc2ncc(Br)n2n1)c1ccccc1` came in with a melting point of 160 to 161 °C. `O=C(O)Cn1cc(Cc2nc3c(F)c(F)cc(F)c3s2)c2ccccc21`: the melting point was in the range of 177 to 178 °C.

The compound `COc1ccc(NS(=O)(=O)c2cccc3ccccc23)cc1OCCc1ccc2ccccc2c1` displayed a melting point of 127 to 131 °C. To `Cc1nc2c(N)nc3ccccc3c2n1CCCCNS(C)(=O)=O` belongs 229 to 230 °C. With `CC(=O)C(=Cc1cccc([N+](=O)[O-])c1)C(=O)OC(C)(C)CN(C)CCC(c1ccccc1)c1ccccc1`, the melting point was in the range of 65 to 80 °C. As for `CCN(c1cccc(-c2ccnc3c([N+](=O)[O-])cnn23)c1)S(=O)(=O)c1ccc(OC)cc1`, the figure is 209 to 211 °C; as for `O=S1NC(CC2=C(Cl)c3ccccc3CC2)=NO1` (stereo unspecified), 90.5 to 91.5 °C; as for `CCN(CC)c1ccc(C2(c3ccc(N(C)C)cc3)OC(=O)c3cc(N(C)C)ccc32)c(C)c1` (stereo unspecified), 190 to 195 °C. To `COc1ccc(C(=Cc2cc3c(cc2[N+](=O)[O-])OCO3)C(=O)O)cc1` belongs 184 to 185 °C.

For `Fc1ccc(Cn2cnc3c(-c4ccco4)nc(Cl)nc32)cc1`, the melting point lay within 152 to 155 °C. In turn, `COc1cc(OC)c2c(=O)cc(-c3ccc(OC)c(I)c3)oc2c1` displayed a melting point of 209 to 210 °C. As for `CS(=O)(=O)c1ccc(C(=O)Nc2ccc(-n3nc(C(F)(F)F)cc3C(F)(F)F)cc2)c(Cl)c1`, the figure is 219 to 220 °C; as for `COC(=O)c1ccoc1CCNC(=O)C[C@H]1O[C@H](c2cccc(OC)c2OC)c2cc(Cl)ccc2N(CC(C)(C)CO)C1=O`, 81 to 83 °C; as for `COC=C(C(=O)OC)c1ccc(OC(C)=O)cc1`, 69 to 70 °C. As for `CCCCCCCCCC(=O)c1ccc(Br)cc1F`, the figure is 31 to 32 °C; as for `O=C(O)c1ccc(Br)cc1COc1ccccc1`, 160 to 163 °C; as for `O=C(N[C@H](Cc1ccc(F)cc1)C(=O)N1CCC(O)CC1)c1cc2ccccc2[nH]1`, 204 to 207 °C. As for `CCCCN(c1c([O-])[c+](N(CCCC)C2CC(C)(C)NC(C)(C)C2)[c+]1[O-])C1CC(C)(C)NC(C)(C)C1`, the figure is 151 to 152 °C; as for `COc1cc2c(cc1OC)-c1c(C=O)c(C#N)cn1CC2`, 220 to 221 °C; as for `CCOC(=O)C1=C(Cc2ccccc2)Nc2n[nH]cc2C1c1ccccc1Cl` (stereo unspecified), 247 °C. In the case of `CCOC(=O)c1c(C)nc2c(C(F)(F)F)cccc2c1O`, the melting point stood at 165 °C. To `CCOC(=O)c1cnn(-c2ccc(Oc3ccc(C)cc3O)cc2)c1N` belongs 142 to 144 °C; to `Cc1cc(Oc2ccc([N+](=O)[O-])c(F)c2)n[nH]1`, 80 to 83 °C. To `CCCC(=O)c1noc2ccccc12` belongs 33 to 35 °C; to `CCOC(=O)CC1=C(O)c2sccc2S(=O)(=O)N1C`, 161 to 163 °C; to `Cc1oc(-c2ccco2)nc1COc1ccc(COc2nn(Cc3ccccc3)cc2C=O)cc1Cl`, 158 to 159 °C.

With `CC(=O)Nc1cc(O)c(C(=O)NC2CCN(Cc3ccccc3)CC2)cc1[N+](=O)[O-]`, the melting point fell in the range of 220 to 222 °C. To `COc1ccc(C(=O)c2cccc(CC(=O)O)c2N)cc1` belongs 117 to 118 °C; to `Cc1cc(-c2cc(CO)c(=O)n(CC(C)C)n2)ccc1F`, 107 to 110 °C. To `O=c1ccc2c(CO)nccc2[nH]1` belongs 294 to 300 °C.

For the compound `CCn1nc(C)c(N)c1C`, the melting point is 69 to 70 °C. As for `O=C(Nc1ccc(OCCCN2CCc3ccccc3C2)cc1)c1cccc2c(=O)c3ccccc3[nH]c12`, the figure is 182 °C; as for `Cc1oc2c(C)c(C)c(NCc3ccc(F)cc3)c(C)c2c1-c1ccc(C(C)C)cc1`, 95 to 97 °C; as for `Nc1ncc(C(=O)NCc2ccc(C(F)(F)F)cc2)c(N2CCCC2)n1`, 227 to 228 °C. Compound `COc1cc(COc2cc(N)c(Cl)cc2C(=O)CCCCN2CCCCC2)cc(OC)c1` came in with a melting point of 128 to 130 °C.
